Test results: PubChem BioAssay (NCI)
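Exposure lasted 48 hours, with cells grown in 96-well plates and compounds tested at five concentrations. GI50: concentration for 50% inhibition of growth. TGI marks complete inhibition of growth.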

Tests used:
Test in all cases: NCI anticancer screen, dose series, 48 h
MALME-3M melanoma = system: MALME-3M melanoma
OVCAR-5 ovarian = system: OVCAR-5 ovarian
NCI-H522 lung = system: NCI-H522 lung
HCT-15 colon = system: HCT-15 colon
HL-60(TB) leukemia = system: HL-60(TB) leukemia
KM12 colon = system: KM12 colon
EKVX NSCLC = system: EKVX NSCLC
SK-MEL-5 melanoma = system: SK-MEL-5 melanoma
NCI-H23 lung = system: NCI-H23 lung
SF-295 CNS = system: SF-295 CNS

Structure (SMILES)	TGI (MALME-3M melanoma)	TGI (OVCAR-5 ovarian)	TGI (NCI-H522 lung)	TGI (HCT-15 colon)	TGI (HL-60(TB) leukemia)	TGI (KM12 colon)	TGI (EKVX NSCLC)	TGI (SK-MEL-5 melanoma)	TGI (NCI-H23 lung)	TGI (SF-295 CNS)	GI50 (MALME-3M melanoma)	GI50 (OVCAR-5 ovarian)	GI50 (NCI-H522 lung)	GI50 (HCT-15 colon)	GI50 (HL-60(TB) leukemia)	GI50 (KM12 colon)	GI50 (EKVX NSCLC)	GI50 (SK-MEL-5 melanoma)	GI50 (NCI-H23 lung)	GI50 (SF-295 CNS)
CCCCCCCCCCCOc1ccc(C(=O)C(=O)c2ccc(OCCCCCCCCCCC)c(OCCCCCCCCCCC)c2)cc1OCCCCCCCCCCC	> 100 µM	> 100 µM	> 100 µM	> 100 µM	> 100 µM	> 100 µM	> 100 µM	> 100 µM	> 100 µM	> 100 µM	–	–	–	–	–	–	–	–	–	–
O=CC[C@H]1C(=O)C[C@@H]2CCC[C@@H]21	> 100 µM	> 100 µM	> 100 µM	> 100 µM	> 100 µM	> 100 µM	> 100 µM	> 100 µM	> 100 µM	> 100 µM	–	–	–	–	–	–	–	–	–	–
Clc1ccc2c(NCCCCNc3nc(N4CCCCC4)nc4ccccc34)ccnc2c1	3.48 µM	9.23 µM	5.3 µM	3.13 µM	3.52 µM	13.1 µM	13.8 µM	3.18 µM	19.2 µM	2.6 µM	1.85 µM	2.17 µM	2.04 µM	1.15 µM	1.76 µM	3.4 µM	2.69 µM	1.77 µM	4.67 µM	1.22 µM
C/C(CC(=O)CCC(=O)Nc1cccc(C(F)(F)F)c1)=N\NC(=O)NN	> 100 µM	> 100 µM	> 100 µM	> 100 µM	> 100 µM	> 100 µM	> 100 µM	> 100 µM	> 100 µM	> 100 µM	–	–	–	–	–	–	–	–	–	–
Cc1nc2ccccc2c(N)c1-c1cc(C)c2c(C)nc3ccccc3c2n1	2.59 µM	3.06 µM	> 20.5 µM	0.562 µM	–	2.15 µM	3.29 µM	> 37.4 µM	3.24 µM	2.74 µM	1.27 µM	1.59 µM	2.41 µM	0.216 µM	0.454 µM	0.785 µM	1.61 µM	18.2 µM	1.56 µM	1.34 µM
Cn1cnc([N+](=O)[O-])c1Sc1nnc(-c2cccnc2)n1C	33.2 µM	> 100 µM	15.2 µM	36.2 µM	21.1 µM	> 100 µM	66.4 µM	35.4 µM	51.7 µM	> 100 µM	–	–	–	–	–	–	–	–	–	–
O=C(/C=C/c1ccccc1)NC1C=Nc2ccc(Cl)cc2NC1=O (configuration not stated)	85.1 µM	> 100 µM	34.6 µM	61 µM	30.3 µM	56.8 µM	> 100 µM	51.6 µM	> 100 µM	> 100 µM	–	–	–	–	–	–	–	–	–	–
C=C(CN1CCN(c2ccc(Cl)cc2F)CC1)c1ccc(C(=O)Nc2ccccc2N)cc1	> 100 µM	> 100 µM	5.95 µM	> 100 µM	–	> 59.7 µM	> 100 µM	> 22.4 µM	> 100 µM	> 100 µM	1.92 µM	51.7 µM	2.19 µM	2.16 µM	0.794 µM	2.26 µM	11.5 µM	2.3 µM	3.13 µM	3.16 µM
O=C1C(Cl)=C(Nc2cccc(Cl)c2)C(=O)N1Cc1ccc(Cl)cc1Cl	19 µM	37.1 µM	5.86 µM	8.84 µM	> 100 µM	39.2 µM	34.4 µM	4.5 µM	25.6 µM	33.4 µM	4.17 µM	11.6 µM	0.265 µM	0.0981 µM	7.66 µM	7.89 µM	9.31 µM	0.321 µM	2.14 µM	4.22 µM
COc1ccc(C(=O)Cn2c(C(=O)c3ccccc3)nc(-c3ccc(OC)cc3)c2-c2ccc(OC)cc2)cc1	> 100 µM	> 100 µM	> 100 µM	> 100 µM	> 100 µM	> 100 µM	> 100 µM	> 100 µM	> 100 µM	> 100 µM	> 100 µM	> 100 µM	> 100 µM	> 100 µM	> 100 µM	> 100 µM	> 100 µM	> 100 µM	> 100 µM	42.5 µM
O=C(COc1ccc(Br)cc1Br)N1N=C(c2ccc([N+](=O)[O-])o2)CC1(O)c1ccccc1 (configuration not stated)	25.1 µM	98.2 µM	20.7 µM	18.7 µM	17.1 µM	45.3 µM	9.59 µM	16.1 µM	36 µM	53.7 µM	–	–	–	–	–	–	–	–	–	–
CC(C)C/C(CC(=O)CCC(=O)Nc1ccccc1[N+](=O)[O-])=N\NC(=O)c1cc2ccccc2cc1O	> 100 µM	> 100 µM	76 µM	> 100 µM	88.7 µM	> 100 µM	> 100 µM	67.5 µM	> 100 µM	99.8 µM	–	–	–	–	–	–	–	–	–	–
COc1ccc2c(c1)/C(=C/c1c(C)nc3sc(C)nn13)C(=O)N2	> 100 µM	> 100 µM	5.93 µM	> 100 µM	–	> 54.6 µM	> 100 µM	> 100 µM	> 65.5 µM	50.3 µM	–	9.28 µM	0.574 µM	0.879 µM	0.663 µM	0.42 µM	8.36 µM	1.5 µM	3.33 µM	1.48 µM
Cc1cc(I)cc(CN(C)CCCCN2CCCCC2)c1O	28 µM	40.5 µM	38.2 µM	25.8 µM	26.3 µM	31.3 µM	87.3 µM	10.7 µM	> 100 µM	7.62 µM	12.7 µM	14.3 µM	17.2 µM	6.08 µM	10.9 µM	13.6 µM	20.9 µM	3.33 µM	24.7 µM	3.05 µM
CC12CCC(O)CC1CCC1C2CCC2(C)C(C3=CC(=O)OC3)CCC12O (configuration not stated)	4.89 µM	16.9 µM	4.9 µM	5.75 µM	8.36 µM	> 43.3 µM	5.88 µM	1.98 µM	4.76 µM	10.8 µM	–	–	–	2.39 µM	–	–	–	–	–	–
CC/C=C\CCC/C=C1/C(=O)C=C[C@@H]1C/C=C\CCCC(=O)OC	16.6 µM	17.6 µM	3.77 µM	5.13 µM	7.51 µM	6.39 µM	15.6 µM	3.5 µM	10.8 µM	8.75 µM	4.76 µM	5.28 µM	1.91 µM	2.1 µM	2.79 µM	2.46 µM	4.56 µM	1.88 µM	3.23 µM	3.1 µM
